Key:
SIM/SMR promoters = experiment: SIM/SMR promoter:GUS transcriptional reporter lines; format: in vivo, Arabidopsis thaliana
Excerpt: SIM/SMR promoter sequences were amplified from genomic DNA by PCR using the primers described in Table 5. The product fragments were created with the Pfu DNA Polymerase Kit (Promega, Catalog #M7745), and were cloned into a pDONR P4-Plr entry vector by BP recombination cloning and subsequently transferred into the pMK7S*NFml4GW,0 destination vector by LR cloning, resulting in a transcriptional fusion between the promoter of the SMR genes and the nlsGFP-GUS fusion gene (Karimi et al., 2007). For the overexpression constructs, the SMR coding regions were amplified using primers described in Table 5, and cloned into the pDONR221 vector by BP recombination cloning and subsequently transferred into the pK2GW7 destination vector (Kamimi et al., 2002) by LR cloning. All constructs were transferred into the Agrobacterium tumefaciens C58C1RifR strain harboring the pMP90 plasmid. The obtained Agrobacterium strains were used to generate stably transformed Arabidopsis lines with the floral dip transformation method (Clough and Bent, 1998). Transgenic plants were obtained on kanamycin-containing medium and later transferred to soil for optimal seed production.
Complete seedlings or tissue cuttings were stained in multiwell plates (Falcon 3043; Becton Dickinson). GUS assays were performed as described by Beeckman and Engler (1994). Samples mounted in lactic acid were observed and photographed with a stereomicroscope (Olympus BX51 microscope) or with a differential interference contrast (DIC) microscope (Leica).
To confirm involvement of SIM/SMR genes in the genotoxic stress response, transcriptional reporter lines containing the putative upstream promoter sequences were constructed for all. After selection of representative reporter lines, one-week-old seedlings were transferred to control medium, or medium supplemented with HU (resulting into stalled replication forks) or bleomycin (causing DSBs).

[1] = tested on: root meristem material of seedlings; settings: 0.3 μg/mL bleomycin for 24 hours
Experimental: Seeds were plated on sterilized membranes and grown under a 16-hour light/8-hour dark regime at 21° C. After 2 days of germination and 5 days of growth, the membrane was transferred to MS medium containing 0.3 μg/mL bleomycin for 24 hours. Triplicate batches of root meristem material seedlings were harvested for total RNA preparation using the RNEASY® plant mini kit (Qiagen). Each of the different root tip RNA extracts were hybridized to 12 AFFYMETRIX® Arabidopsis Gene 1.0 ST Arrays according to manufacturer's instructions at the Nucleomics Core Facility (Leuven, Belgium; World Wide Web at nucleomics.be). Raw data were processed with the RMA algorithm (Irizarry et al., 2003) using the AFFYMETRIX® Power Tools and subsequently subjected to a Significance Analysis of Microarray (SAM) analysis with “MultiExperiment Viewer 4” (MeV4) of The Institute for Genome Research (TIGR) (Tusher et al., 2001). The imputation engine was set as 10-nearest neighbor imputer and the number of permutations was 100. Expression values were obtained by log 2-transforming the average value of the normalized signal intensities of the triplicate samples. Fold changes were obtained using the expression values of the treatment relative to the control samples. Genes with Q-values<0.1 and fold change>1.5 or <0.666 were retained for further analysis.

[2] = root meristem, treatment relative to control

Substance: bleomycin
- induction of SMR6 reporter in root tips (SIM/SMR promoters; one-week-old seedlings, 0.3 μg/mL bleomycin, GUS assay after 24 hours): weak cell-specific induction
- induction of SMR5 and SMR7 GUS reporters in the proliferating leaf (SIM/SMR promoters; treated for 24 hours): induced
- Bleomycin fold change, AT1G07500 (Siamese-related 5) [1, 2]: 1.595
- Bleomycin fold change, AT1G13330 (Hop2 homolog) [1, 2]: 1.580
- Bleomycin fold change, AT1G17460 (TRF-like 3) [1, 2]: 1.681
- Bleomycin fold change, AT1G49030 (PLAC8 family protein) [1, 2]: 2.653
- Bleomycin fold change, AT2G18600 (Ubiquitin-conjugating enzyme family protein) [1, 2]: 1.972
- Bleomycin fold change, AT2G45460 (SMAD/FHA domain-containing protein) [1, 2]: 1.575
- Bleomycin fold change, AT2G46610 (RNA-binding RRM/RBD/RNP motifs family protein) [1, 2]: 1.546
- Bleomycin fold change, AT3G07800 (Thymidine kinase) [1, 2]: 2.759
- Bleomycin fold change, AT3G25250 (AGC kinase family protein) [1, 2]: 1.517
- Bleomycin fold change, AT3G27060 (Ferritin/ribonucleotide reductase-like family protein) [1, 2]: 1.970
- Bleomycin fold change, AT3G27620 (alternative oxidase 1C) [1, 2]: 1.883
- Bleomycin fold change, AT3G27950 (GDSL-like Lipase/Acylhydrolase superfamily protein) [1, 2]: 4.012
- Bleomycin fold change, AT4G02390 (Poly(ADP-ribose) polymerase) [1, 2]: 2.663
- Bleomycin fold change, AT4G04750 (Major facilitator superfamily protein) [1, 2]: 1.689
- Bleomycin fold change, AT4G05370 (BCS1 AAA-type ATPase) [1, 2]: 1.807
- Bleomycin fold change, AT4G15480 (UDP-Glycosyltransferase superfamily protein) [1, 2]: 2.394
- Bleomycin fold change, AT4G21070 (Breast cancer susceptibility1) [1, 2]: 2.386
- Bleomycin fold change, AT4G22960 (Unknown function DUF544) [1, 2]: 2.282
- Bleomycin fold change, AT5G03780 (TRF-like 10) [1, 2]: 1.600
- Bleomycin fold change, AT5G14920 (Gibberellin-regulated family protein) [1, 2]: 2.122
- Bleomycin fold change, AT5G20850 (RAS associated with diabetes protein 51) [1, 2]: 1.765
- Bleomycin fold change, AT5G24280 (Gamma-irradiation and mitomycin c induced 1) [1, 2]: 2.584
- Bleomycin fold change, AT5G25810 (Integrase-type DNA-binding superfamily protein) [1, 2]: 1.573
- Bleomycin fold change, AT5G40840 (Rad21/Rec8-like family protein) [1, 2]: 1.692
- Bleomycin fold change, AT5G48720 (X-ray induced transcript 1) [1, 2]: 2.228
- Bleomycin fold change, AT5G49110 (unknown protein) [1, 2]: 1.562
- Bleomycin fold change, AT5G49480 (Ca2+-binding protein 1) [1, 2]: 1.580
- Bleomycin fold change, AT5G55490 (Gamete expressed protein 1) [1, 2]: 2.407
- Bleomycin fold change, AT5G60100 (pseudo-response regulator 3) [1, 2]: 1.801
- Bleomycin fold change, AT5G60250 (Zinc finger C3HC4-type RING finger family protein) [1, 2]: 2.352
- Bleomycin fold change, AT5G64060 (NAC domain containing protein 103) [1, 2]: 2.153
- Bleomycin fold change, AT5G66130 (RADIATION SENSITIVE 17) [1, 2]: 1.627
- Bleomycin fold change, AT5G66985 (unknown protein) [1, 2]: 1.612
- induction of SMR7 (At3g27630) in the bleomycin experiment ([1]; Aragene array): 5.68 fold

From patent publication US20160272992A1, “PROTECTION OF PLANTS AGAINST OXIDATIVE STRESS” (priority 2013, published 2016)
